# Reference: US9642829B2, “Antifungal compound and uses thereof” (The University of Hong Kong, priority 2012, dated 2017)
# Legend:
# C. albicans [1] = assay: Yeast-to-hypha (Y-H) transition inhibition under strong hyphal inducing conditions; assay type: cell-based, Candida albicans; set-up: Y-Hi (yeast-to-hypha inhibitory activity): unit: μg/ml
# Excerpt: A large collection of small molecule library was screened in search of inhibitors of yeast-to-hypha transition (Y—H) of C. albicans using 384-well plate-high throughout assays (HTS). […] After subsequent studies with robust Y—H inducing conditions, we herein report a novel small molecule SM21 (FIG. 1) with strong Y-Hi activity and antifungal-activity.
# Several environmental conditions which are known to induce the hyphal formation of C. albicans such as serum, Lee's medium, Spider medium, temperature and 37° C. were used to test the ability of SM21 to inhibit Y—H transition. […] SM21 could act as a Y-Hi at a lower concentration of 0.025 μg/ml and 0.0.5 μg/ml for 10^4 cells/ml and 10^6 cells/ml of C. albicans, respectively. Chemical structure of SM21 is shown in (F)
# C. glabrata = assay: Antifungal susceptibility (MIC/MFC), CLSI criteria; assay type: cell-based, Candida glabrata; conditions: C. glabrata ATCC; 0.5 McFarland inoculum (10^6 cells/ml)
# Description: (§1) Antifungal activity of the small molecules was evaluated using USA standards, Clinical and Laboratory Standards Institute (CLSI) criteria. In brief, inocula from 24 h Candida cultures on Sabourauds's dextore agar were standardized to a turbidity equivalent of 0.5 McFarland standards at 520 nm with a spectrophotometer. The suspensions were further diluted in Rosewell Park Memorial Institute (RPMI) 1640 medium (Life technologies, New York, USA) to yield an inoculum concentration of approximately 0.5 1×10^3 to 2.5 1×10^3 cells/ml. Minimum inhibitory concentration (MIC) and minimum fungicidal concentration (MFC) assay was performed in 96-well plates (Iwaki, Tokyo, Japan) and each of the Candida species was exposed to a double dilution of SM21. Amphotericin B was used as a positive control. All the experiments were preformed three occasions with duplicates for all isolates. The plates were incubated at 35° C. for 48 h to evaluate MIC. In the case of Cryotococcus neoformans, reading were taken after 72 h. Aforementioned assay was performed for C. albicans ATCC 90028, C. albicans SC5314 and 10 C. albicans clinical isolates. Moreover, MIC/MFC determination was carried out for other fungal species such as C. glabrata, C. krusei, C. tropicalis, C. parapsilosis, C. neoformans, Aspergillus fumigates and Penicillium marneffei. […]
# C. krusei = assay: Antifungal susceptibility (MIC/MFC), CLSI criteria; assay type: cell-based, Candida krusei; conditions: C. krusei ATCC; 0.5 McFarland inoculum (10^6 cells/ml)
# Description: as §1
# C. tropicalis = assay: Antifungal susceptibility (MIC/MFC), CLSI criteria; assay type: cell-based, Candida tropicalis; conditions: C. tropicalis ATCC; 0.5 McFarland inoculum (10^6 cells/ml)
# Description: as §1
# [2] = test system: human gingival fibroblasts; assay: Cytotoxicity assay (MTT reduction, FIG. 6); assay type: cell-based; conditions: primary human gingival fibroblasts; at effective concentration
# Description: (§2) FIG. 6. MTT reduction assay of primary culture human monocytes, gingival fibroblasts and oral keratinocytes showing safety of SM21.
# (§3) Next, we used mouse model and treated the animals with 100 times of the effective dose (2 μg) i.e. 200 μg of SM21 twice a day for five days.
# human monocytes = assay: Cytotoxicity assay (MTT reduction, FIG. 6); assay type: cell-based; conditions: primary human monocytes; at effective concentration
# Description: as §2, §3
# human oral keratinocytes = assay: Cytotoxicity assay (MTT reduction, FIG. 6); assay type: cell-based; conditions: primary human oral keratinocytes; at effective concentration
# Description: as §2, §3
# [3] = In vivo safety in mouse model; conditions: 200 μg (100 times the effective dose of 2 μg) twice a day for five days
# Description: as §3
# [4] = test system: Candida albicans invasion of human oral keratinocytes; assay: Candida-human oral keratinocytes co-culture model; assay type: cell-based; conditions: 1×10^4 cells/ml C. albicans with human oral keratinocytes, 24-h incubation
# Description: We also examined the ability of SM21 to inhibit invasion of Candida albicans in Candida-human oral keratinocytes co-culture model. Primary human oral keratinocytes (ScienCell Research Laboratories™, Carlsbad, Calif., USA) at passage two were cultured using Defined Keratinocyte-Serum Free Medium (Gibco, Grand Island, N.Y., USA) which contained 0.2% Defined Keratinocyte-SFM Growth Supplement (Gibco) and 1% penicillin/streptomycin solution. Cells were incubated at 37° C. in a humidified atmosphere with 5% CO2 and 95% air. Yeast cells for inoculation were cultured for 24 h at 37° C. on Sabouraud dextrose agar (Difco, Hampshire, England). A sample of the culture was washed thrice in PBS and an inoculum of approximately 2×10^5 cells was suspended in 10 ml of YPG medium (1% yeast extract, 2% peptone and 2% glucose; Difco, Detroit, Mich.). The suspension was cultured for 18 h at 37° C. with orbital shaking and the cells were harvested, washed in 0.9% NaCl and a sample of cells was resuspended in fresh medium in a shaker for 24 h at 37° C. Afterwards the cells were harvested by centrifuge and the inocula were prepared in phosphate buffered saline (PBS, pH 7.2). Human oral keratinocytes were grown to 80-90% confluence in u-Slide 8-well plates (ibidi GmbH Integrated BioDiagnostics, Martinsried, Germany). […]
# C. albicans [5] = assay: Systemic candidiasis mouse model; assay type: in vivo; conditions: i.v. C. albicans 1×10^6 cells/mL, 100 μl; 2 μg SM21 from 3 h post-infection, twice a day for five days
# Description: As a pilot study, we used systemic candidiasis mouse models we have established in our laboratory to evaluate the effect of SM21 against systemic Candida infection. In brief, C. albicans inoculum of 1×10^6 cells/mL was prepared in phosphate buffered saline (PBS) eight mice were infected with 100 μl of the standard inoculum size intravenously via the tail vein. Three hours after post-infection four mice (test group) were given 2 μg of SM21 and other four (control group) were given PBS. SM21 treatment was continued twice a day for five days. By five days all mice in the control group died (FIG. 8). Mice in each test group were sacrificed according to the standard guidelines and their kidney, liver, pancreas, and spleen will be harvested. The fungal burden in the tissues will be assessed according to a standard protocol. In brief, part of the excised tissues were weighed individually and homogenized in sterile saline. Aliquots of 100 μL from tissue homogenates and their dilutions were plated on Sabouraud's dextrose agar and colonies were counted after 48 h of incubation at 37° C.
compound,measurement,setting,value
CN(C)c1ccc(/C=C/c2cc(C(C)(C)C)[o+]c(C(C)(C)C)c2)cc1.[O-][Cl+3]([O-])([O-])[O-] [SM21],Concentration acting as Y-Hi,C. albicans [1]; 10^4 cells/ml of C. albicans,0.025 µg/mL
same,Y-Hi (yeast-to-hypha inhibitory activity),C. albicans [1]; C. albicans 10^4 cells/ml,0.025
same,Y-Hi (yeast-to-hypha inhibitory activity),C. albicans [1]; C. albicans 10^5 cells/ml,0.5
same,Y-Hi (yeast-to-hypha inhibitory activity),C. albicans [1]; C. albicans 10^6 cells/ml,0.1
same,Y-Hi (yeast-to-hypha inhibitory activity),C. albicans [1]; C. albicans 10^7 cells/ml,0.2
same,Morphology of C. albicans under hyphal inducing conditions,"C. albicans [1]; incubated with SM21 at Y-Hi concentration, serum, Lee's medium, Spider medium, 37° C.",yeast morphology
same,Susceptibility (MIC90),C. glabrata,1.6 µg/mL
same,Susceptibility (MIC90),C. krusei,0.4 µg/mL
same,Susceptibility (MIC90),C. tropicalis,0.8 µg/mL
same,Cytotoxicity,[2],no cytotoxicity
same,Cytotoxicity,human monocytes,no cytotoxicity
same,Cytotoxicity,human oral keratinocytes,no cytotoxicity
same,Detrimental effect in terms of weight reduction and side effects,[3],did not show any detrimental effect
same,"Protection of keratinocytes from C. albicans invasion (LIVE/DEAD, confocal)",[4],able to prevent the epithelial cell damage
same,Survival of infected mice,C. albicans [5],saved all the mice
